Patent US11047012B2, “Method for detecting the risk and prognosis of adult-onset Still's disease” (Taichung Veterans General Hospital, priority 2018, dated 2021)

How the values were obtained:
[1] = tested on: peripheral blood mononuclear cells derived from the patients with AOSD; test: TLR ligand stimulation of peripheral blood mononuclear cells, intracellular miR-134 by QRT-PCR; type: cell-based, human
Method: (§1) The miRNA expressions in a sample were detected using the TaqMan MicroRNA detection kit (Applied Biosystems, Thermo Fisher Scientific, USA) and QRT-PCR was performed in the StepOne Plus real-time PCR system. Small nuclear RNA (hereinafter referred to as RUN6) and synthetic cel-miR-39 (hereinafter referred to as cel-miR-39 cel-miR-39) were respectively used as an internal control gene in cells and plasma. The multiple expression of the target gene was obtained by calculating the average expression of the target gene relative to the internal control gene in the sample by comparative threshold cycle (Ct) method, and evaluated by 2^−ΔΔCt, where ΔΔCt is the (CtmiRNAsgene−CtRnu6/cel-miR-39) of the patient from which the average (CtmiRNAs gene−CtRnu6/cel-miR-39) of the internal control gene is subtracted.
(§2) Peripheral blood mononuclear cells, human monocyte cell line U937 (ATCC CRL1593, hereinafter referred to as U937 cell) and THP-1 cells (ATCC TIB-202) isolated from the subject were respectively cultured in RPMI medium 1640 (Gibco, Thermo Fisher Scientific, USA) supplemented with 10% fetal bovine serum, 1× non-essential amino acids, 100 unit/ml penicillin and 100 unit/ml streptomycin in 5% carbon dioxide at 37° C.
Peripheral blood mononuclear cells (5×10^5 cells) derived from the subjects were stimulated with different TLR ligands. Finally, the intracellular expression level of miR-134 was measured with the TaqMan MicroRNA test kit.
Following the process as described in Example 8, the intracellular expressions of miR-134 and IL-18BP mRNA in the TLR3 ligand-stimulated peripheral blood mononuclear cells derived from patients with AOSD and healthy subjects were detected. The correlation between the IL-18BP and IL-18 expressions and the miR-134 expression was analyzed.

THP-1 cells = test: poly (I:C) stimulation of THP-1 cells, miR-134 expression; type: cell-based, human; conditions: 24 hours after stimulation, FIG. 5B
Method: as §1, §2
Further, the THP-1 cells were treated with the TLR3 ligand poly (I:C).

Substance: polyriboinosinic:polyribocytidylic acid [poly(I:C)]
- miR-134 expression level in the cells ([1]; PBMC from patients with AOSD, TLR3 ligand poly(I:C) 50 μg/ml, FIG. 5A): 3.81±0.09 folds
- expression level of miR-134 ([1]; TLR3 ligand-stimulated PBMC from patients with AOSD, FIG. 10A): increased
- expression level of IL-18BP mRNA ([1]; TLR3 ligand-stimulated PBMC from patients with AOSD, FIG. 10B): reduced
- expression of miR-134 (highest value) (THP-1 cells): 1.92±0.11 folds
